The values below are quoted from earlier work in patent US7060463B2 (priority 2001, dated 2006).

This series addresses GST-Flag-rhARLBD (Macaca mulatta, UniProt Q6QT55).

Sequence of GST-Flag-rhARLBD (Q6QT55 601-895): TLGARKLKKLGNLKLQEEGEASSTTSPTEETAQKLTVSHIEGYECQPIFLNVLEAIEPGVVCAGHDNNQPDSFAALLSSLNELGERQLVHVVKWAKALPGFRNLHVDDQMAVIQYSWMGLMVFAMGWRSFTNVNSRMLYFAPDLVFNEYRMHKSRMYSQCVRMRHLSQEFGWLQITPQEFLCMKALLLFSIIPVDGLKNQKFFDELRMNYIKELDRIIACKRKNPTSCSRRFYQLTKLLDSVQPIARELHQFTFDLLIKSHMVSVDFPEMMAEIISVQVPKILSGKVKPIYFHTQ

With `C[C@]1(O)CC[C@H]2[C@@H]3CCC4=CC(=O)CCC4=C3C=C[C@@]21C` [R1881, 17b-hydroxy-17-methylestra-4,9,11-trien-3-one], the IC50 is approximately 1 nM.
